“Also recorded” adds a separate entry of the source. Blank lines part the entries; values can stand above or below the compound they belong to.
Columns and labels:
BKCa channel = BKCa channel (Homo sapiens, UniProt Q12791); settings: similar assay system, same concentration (20 μM); cited from earlier work
rSlo channel [1] = molecular target: T1, rSlo channel (Rattus norvegicus, UniProt Q62976); assay: Concentration-dependence of channel opening, compound applied to the extracellular side of membrane patches; format: cell-based; settings: extracellular application
T1 construct: expressed in transfected cells; host or cells: Xenopus laevis oocytes
Excerpt: FIG. 6 illustrates concentration-dependence activity of compound 8 on BKCa channel. FIG. 6A illustrates concentration-dependence activity of rSlo channel. FIG. 6B illustrates concentration-dependence activity of rSlo channel combined with human β1. FIG. 6C illustrates concentration-dependence activity of rSlo channel combined with rat β4 subunit.
(§1) We then measured the concentration-dependence of compound 8 of the present invention. […] Although we were not able to obtain a concentration of compound 8 higher than 300 μM because of its solubility in water, we noticed that compound 8-induced current increases reached plateau levels at around 100 μM. […] We also measured the effects of compound 8 using inside-out patch configuration to determine whether this compound also affects channel activity from the intracellular side. The intracellular Ca^2+ concentration was fixed at 2 μM to activate rSlo channels, and different concentrations of compound 8 were added to the intracellular side of the membrane.

[2] = Solubility in water (highest obtainable concentration); format: physicochemical; settings: read-out: highest obtainable concentration because of solubility in water
Experimental: as §1

[3] = molecular target: T2, cloned α subunit of rat BKCa channels, rSlo (Rattus norvegicus, UniProt Q62976); assay: Excised outside-out voltage clamp recording, fold increase of BKCa channel currents by extracellularly applied compounds; format: cell-based; settings: extracellular treatment at 20 μM; outside-out patch, Xenopus laevis oocytes expressing rSlo
T2 construct: expressed in transfected cells; host or cells: Xenopus laevis oocytes
Experimental: FIG. 3 illustrates relative fold-increase of BKCa channel activity by extracellularly applied benzofuroindole analogues of present invention. Bar graphs represent fold increases in BKCa channel currents evoked by extracellular treatment of various compounds at 20 μM.
The biological activity of compounds 7˜23 to open BKCa channels and increase the BKCa channel currents was determined by using excised outside-out voltage clamp recording from Xenopus laevis oocytes expressing cloned α subunit of rat BKCa channels, rSlo.

rSlo channel [4] = molecular target: T1, rSlo channel; assay: Potentiating effect on rSlo channels at various intracellular Ca2+ concentrations, outside-out patch; format: cell-based; settings: 20 μM extracellular
Experimental: FIG. 4 illustrates potency of extracellularly applied compound 22 on rSlo channels in various intracellular Ca^2+ concentrations. Representative raw-traces were shown at different intracellular Ca^2+ concentrations. Intracellular Ca^2+ concentration was increased from Ca^2+-free (A), 0.5 μM (B), 1 μM (C) and 2 μM (D). The concentration of compound 22 was 20 μM on the extracellular side.
To investigate the potentiating effect of compound 22 on rSlo channels at various intracellular Ca^2+ concentrations, rSlo channels were activated in different concentrations of intracellular Ca^2+.
Excised outside-out patch configurations were obtained by making a gigaohm seal, rupturing the membrane pulling the pipette from oocytes. Both of the bath and pipette contained symmetrical 124 mM K^+ ions. Voltage pulses were applied to activate rSlo channel currents from −120 mV to 140 mV in 10 mV increments and intracellular Ca^2+ concentrations were used to activate rSlo channel from 0 (Ca^2+-free solution was to chelate with 5 mM EGTA) to 2 μM in intracellular side.
The representative raw-traces of rSlo channel activated by membrane voltages and intracellular Ca^2+ (FIG. 4). rSlo channel currents were recorded before and after the addition of 20 μM of compound 22.

rSlo channel [5] = molecular target: T1, rSlo channel; assay: Concentration dependence on macroscopic rSlo channel activity expressed in Xenopus oocytes, Hill fit; format: cell-based
Experimental: FIG. 5 illustrates concentration-dependence of compound 22 on BKCa channel. Data points were fitted with Hill equation.
We performed experiments to determine the concentration dependence for the effect of compound 22 on macroscopic rSlo channel activity expressed in Xenopus oocytes.
Currents were recorded from excised outside-out patches before and after the addition of seven different concentrations of compound 22, from 0 to 300 μM. Channel activity of rSlo was elicited after patch excision with 2 μM intracellular Ca^2+ and increased rapidly with the addition of compound 22. Membrane potential was held at −120 mV and stepped to 50 mV for 50 ms. Relative current differences were determined from the currents of control activated with 2 μM of intracellular Ca^2+ and voltage at 50 mV, normalized with control currents and the obtained data points were fitter with a Hill equation (FIG. 5).

T2 sequence (Q62976 whole entry): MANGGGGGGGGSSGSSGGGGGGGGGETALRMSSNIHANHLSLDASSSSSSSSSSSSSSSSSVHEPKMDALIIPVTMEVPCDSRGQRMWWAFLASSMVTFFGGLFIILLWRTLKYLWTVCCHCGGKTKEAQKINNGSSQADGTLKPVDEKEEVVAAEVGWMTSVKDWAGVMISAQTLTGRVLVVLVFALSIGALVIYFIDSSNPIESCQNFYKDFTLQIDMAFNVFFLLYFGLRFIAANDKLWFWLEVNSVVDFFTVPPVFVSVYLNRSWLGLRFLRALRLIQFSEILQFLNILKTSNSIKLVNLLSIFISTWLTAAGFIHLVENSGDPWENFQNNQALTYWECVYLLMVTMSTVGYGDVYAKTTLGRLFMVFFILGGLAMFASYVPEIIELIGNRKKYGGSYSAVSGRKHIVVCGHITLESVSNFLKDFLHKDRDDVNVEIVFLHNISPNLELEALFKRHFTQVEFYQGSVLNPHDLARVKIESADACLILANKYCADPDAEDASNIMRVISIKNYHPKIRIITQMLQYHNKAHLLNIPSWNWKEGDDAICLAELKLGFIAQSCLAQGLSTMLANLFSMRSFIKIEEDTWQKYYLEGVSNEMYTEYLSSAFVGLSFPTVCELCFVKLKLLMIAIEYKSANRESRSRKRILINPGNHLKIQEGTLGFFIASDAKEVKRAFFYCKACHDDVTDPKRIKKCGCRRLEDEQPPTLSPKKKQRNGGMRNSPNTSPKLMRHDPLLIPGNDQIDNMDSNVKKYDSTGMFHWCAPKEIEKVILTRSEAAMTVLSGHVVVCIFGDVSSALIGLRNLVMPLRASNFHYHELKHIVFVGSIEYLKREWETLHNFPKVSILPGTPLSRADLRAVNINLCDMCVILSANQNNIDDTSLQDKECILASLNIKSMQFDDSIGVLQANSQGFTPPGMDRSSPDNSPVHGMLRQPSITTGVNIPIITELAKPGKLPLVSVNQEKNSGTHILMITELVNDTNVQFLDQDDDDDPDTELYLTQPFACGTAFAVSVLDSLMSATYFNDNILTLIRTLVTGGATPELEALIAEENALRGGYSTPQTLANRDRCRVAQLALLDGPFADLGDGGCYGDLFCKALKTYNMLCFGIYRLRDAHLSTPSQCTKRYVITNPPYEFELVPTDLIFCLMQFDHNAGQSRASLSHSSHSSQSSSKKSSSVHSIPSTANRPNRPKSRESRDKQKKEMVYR
T1 sequence (Q62976 whole entry): as above
Chain of BKCa channel (Q12791 whole entry): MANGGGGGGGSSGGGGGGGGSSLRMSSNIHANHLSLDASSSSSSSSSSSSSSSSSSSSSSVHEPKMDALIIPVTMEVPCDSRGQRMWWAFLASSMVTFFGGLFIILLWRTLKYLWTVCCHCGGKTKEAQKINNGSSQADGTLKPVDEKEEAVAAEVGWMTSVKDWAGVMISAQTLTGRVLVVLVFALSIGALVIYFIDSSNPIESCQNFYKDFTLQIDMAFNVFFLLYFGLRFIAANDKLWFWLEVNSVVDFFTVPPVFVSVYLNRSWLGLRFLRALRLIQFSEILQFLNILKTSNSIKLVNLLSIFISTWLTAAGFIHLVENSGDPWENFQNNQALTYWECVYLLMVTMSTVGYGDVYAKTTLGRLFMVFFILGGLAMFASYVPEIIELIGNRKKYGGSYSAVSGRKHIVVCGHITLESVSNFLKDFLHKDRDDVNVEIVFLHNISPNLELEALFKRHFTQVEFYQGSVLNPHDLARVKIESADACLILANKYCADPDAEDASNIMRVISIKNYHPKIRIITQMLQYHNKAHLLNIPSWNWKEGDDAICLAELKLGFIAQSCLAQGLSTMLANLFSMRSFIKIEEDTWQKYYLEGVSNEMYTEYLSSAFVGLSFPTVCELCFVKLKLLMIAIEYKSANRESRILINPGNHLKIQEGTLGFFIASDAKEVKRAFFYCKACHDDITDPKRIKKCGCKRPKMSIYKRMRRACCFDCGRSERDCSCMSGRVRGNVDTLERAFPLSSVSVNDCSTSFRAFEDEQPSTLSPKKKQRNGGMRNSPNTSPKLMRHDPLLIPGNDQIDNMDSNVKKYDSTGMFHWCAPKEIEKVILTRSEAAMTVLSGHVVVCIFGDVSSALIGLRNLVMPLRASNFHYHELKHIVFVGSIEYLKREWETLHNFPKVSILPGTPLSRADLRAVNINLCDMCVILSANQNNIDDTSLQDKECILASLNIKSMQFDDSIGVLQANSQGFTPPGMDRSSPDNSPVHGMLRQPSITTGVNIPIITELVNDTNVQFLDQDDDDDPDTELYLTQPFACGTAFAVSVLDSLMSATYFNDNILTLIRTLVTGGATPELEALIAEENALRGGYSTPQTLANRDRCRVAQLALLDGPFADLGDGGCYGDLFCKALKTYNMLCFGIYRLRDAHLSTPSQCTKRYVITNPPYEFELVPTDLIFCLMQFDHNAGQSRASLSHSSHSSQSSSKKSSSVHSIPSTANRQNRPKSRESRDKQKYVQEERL

Compound: COc1ccc(Cl)cc1-c1c(CCO)c(=O)[nH]c2ccc(C(F)(F)F)cc12 [Compound 2]
reported fold increase (BKCa channel): ~3.7

EC50 (rSlo channel [1]): 8.9 ± 1.5 µM
solubility [2]: ≤ 300 µM
Compound: O=C(O)c1cccc2c1[nH]c1c3ccc(C(F)(F)F)cc3oc21 [Compound 8, 7-Trifluoromethyl-10H-benzo[4,5]furo[3,2-b]indole-1-carboxylic acid]

Compound: COc1ccc(Cl)cc1[C@]1(F)C(=O)Nc2cc(C(F)(F)F)ccc21 [BMS-204352]
reported fold increase (BKCa channel): around 1.5

fold increase of BKCa channel currents [3]: activity near to the basal level
Compound: FC(F)(F)c1ccc2c(c1)oc1c2[nH]c2cc(Cl)cc(Cl)c21 [Compound 19, 2,4-Dichloro-7-trifluoromethyl-10H-benzo[4,5]furo[3,2-b]indole]

reversibility of enhanced rSlo current by washout (rSlo channel [4]; all tested intracellular Ca2+ concentrations): could be removed by washout
Kd (rSlo channel [5]; 2 μM intracellular Ca2+, step to 50 mV, N=5, read-out: Kd, apparent dissociation constant (Hill fit)): 4.01 ± 0.75 µM
fold increase of BKCa channel currents [3]: more than 6 fold
Compound: O=C(O)c1ccc(Cl)c2c1[nH]c1c3ccc(C(F)(F)F)cc3oc12 [Compound 22, 4-Chloro-7-trifluoromethyl-10H-benzo[4,5]furo[3,2-b]indole-1-carboxylic acid]
effect on rSlo channel current (rSlo channel [4]; intracellular Ca2+ from Ca2+-free to 2 μM): markedly significant effects on rSlo channel current; also recorded: intracellular Ca^2+ concentrations do not affect the potentiating effect
effect on rSlo current over concentration range (rSlo channel [5]; 50 nM to 300 μM): enhanced rSlo current in a concentration dependent manner

fold increase of BKCa channel currents [3]: activity near to the basal level
Compound: FC(F)(F)c1ccc2c(c1)oc1c3ccc(Cl)c(Cl)c3[nH]c21 [Compound 18, 1,2-Dichloro-7-trifluoromethyl-10H-benzo[4,5]furo[3,2-b]indole]

Compound: O=C(O)c1cc(Cl)cc2c1[nH]c1c3ccc(C(F)(F)F)cc3oc21 [Compound 23, 3-Chloro-7-trifluoromethyl-10H-benzo[4,5]furo[3,2-b]indole-1-carboxylic acid]
fold increase of BKCa channel currents [3]: close but not better channel opening activity than compound 22
